{
  "source": "patent US9562022B2",
  "about": "(priority 2009, dated 2017)",
  "note": "Where a name gives a salt, the structure may show the parent alone.",
  "data": [
    {"tested_on": "not given", "experiment": "not given", "conditions": "not given", "units": {"melting point": "°C"}, "values": [
      {"compound": "CC1=C(/C=C/C(=O)N2CCN(S(N)(=O)=O)CC2)C(C)(C)CCC1", "note": "(as salt: hydrochloride)", "melting point": "181 to 183"}
    ]},
    {"tested_on": "P23H opsin", "experiment": "Rhodopsin purification and regeneration (pigment formation from P23H opsin produced in the presence of compound)", "conditions": "P23H opsin treated with 20 μM compound during mutant protein production; relative to pigment formation with vehicle (DMSO) alone", "values": [
      {"compound": "CC1CCCC(C)(C)C1/C=C/C(=O)N1CCN(C(N)=O)CC1", "note": "(racemic) [Compound 71, (±)-4-((E)-3-((1,6-anti)-2,2,6-trimethylcyclohexyl)acryloyl)piperazine-1-carboxamide]", "regeneration of 500 nm absorbing pigment upon treatment with retinal": "increase"},
      {"compound": "CC1=C(/C=C/C(=O)N2CCOCC2)C(C)(C)CCC1", "note": "[Compound 6, (E)-1-Morpholino-3-(2,6,6-trimethylcyclohex-1-enyl)prop-2-en-1-one]", "regeneration of 500 nm absorbing pigment upon treatment with retinal": "increase"},
      {"compound": "CC1=C(/C=C/C(=O)N2CCCN(C(N)=O)CC2)C(C)(C)CCC1", "note": "[Compound 13, (E)-4-(3-(2,6,6-Trimethylcyclohex-1-enyl)acryloyl)-1,4-diazepane-1-carboxamide]", "regeneration of 500 nm absorbing pigment upon treatment with retinal": "increase"},
      {"compound": "CC1=C(/C=C/C(=O)N2CCN(C(N)=O)CC2)C(C)(C)CCC1", "note": "[Compound 33, (E)-4-(3-(2,6,6-Trimethylcyclohex-1-enyl)acryloyl)piperazine-1-carboxamide]", "regeneration of 500 nm absorbing pigment upon treatment with retinal": "increase"},
      {"compound": "CC1=C(/C=C/C(=O)N2CCN(C(=O)NC(C)C)CC2)C(C)(C)CCC1", "note": "[Compound 37, (E)-N-Isopropyl-4-(3-(2,6,6-trimethylcyclohex-1-enyl)acryloyl)piperazine-1-carboxamide]", "regeneration of 500 nm absorbing pigment upon treatment with retinal": "increase"},
      {"compound": "CC1=C(/C=C/C(=O)N2CCC(NC(N)=O)C2)C(C)(C)CCC1", "note": "(centres unmarked) [Compound 50, (E)-1-(1-(3-(2,6,6-Trimethylcyclohex-1-enyl)acryloyl)pyrrolidin-3-yl)urea]", "regeneration of 500 nm absorbing pigment upon treatment with retinal": "increase"},
      {"compound": "CC1=C(CCC(=O)N2CCN(C(N)=O)CC2)C(C)(C)CCC1", "note": "[Compound 51, 4-(3-(2,6,6-Trimethylcyclohex-1-enyl)propanoyl)piperazine-1-carboxamide]", "regeneration of 500 nm absorbing pigment upon treatment with retinal": "increase"},
      {"compound": "CC1=C(/C=C/C(=O)N2CCN(C(N)=O)[C@@H](C)C2)C(C)(C)CCC1", "note": "[Compound 52, (S,E)-2-Methyl-4-(3-(2,6,6-trimethylcyclohex-1-enyl)acryloyl)piperazine-1-carboxamide]", "regeneration of 500 nm absorbing pigment upon treatment with retinal": "increase"},
      {"compound": "CC1=C(/C=C/C(=O)N2CCN(C(N)=O)[C@H](C)C2)C(C)(C)CCC1", "note": "[Compound 53, (R,E)-2-Methyl-4-(3-(2,6,6-trimethylcyclohex-1-enyl)acryloyl)piperazine-1-carboxamide]", "regeneration of 500 nm absorbing pigment upon treatment with retinal": "increase"},
      {"compound": "CC1=C(CNC(=O)N2CCN(C(N)=O)CC2)C(C)(C)CCC1", "note": "[Compound 55, N^1-((2,6,6-Trimethylcyclohex-1-en-1-yl)methyl)piperazine-1,4-dicarboxamide]", "regeneration of 500 nm absorbing pigment upon treatment with retinal": "increase"},
      {"compound": "CC1=C(/C=C/C(=O)N2CC[C@@H](OC(N)=O)C2)C(C)(C)CCC1", "note": "[Compound 57, (R,E)-1-(3-(2,6,6-Trimethylcyclohex-1-en-1-yl)acryloyl)pyrrolidin-3-yl carbamate]", "regeneration of 500 nm absorbing pigment upon treatment with retinal": "increase"},
      {"compound": "[2H]C1([2H])CCC(C)(C)C(/C=C/C(=O)N2CCN(C(N)=O)CC2)=C1C", "note": "[Compound 63, (E)-4-(3-(3,3-Dideutero-2,6,6-trimethylcyclohex-1-en-1-yl)acryloyl)piperazine-1-carboxamide]", "regeneration of 500 nm absorbing pigment upon treatment with retinal": "increase"},
      {"compound": "C[C@H]1CCCC(C)(C)[C@@H]1/C=C/C(=O)N1CCN(C(N)=O)CC1", "note": "[Compound 73, (+)-4-((E)-3-((1S,6S)-2,2,6-trimethylcyclohexyl)acryloyl)piperazine-1-carboxamide]", "regeneration of 500 nm absorbing pigment upon treatment with retinal": "increase"},
      {"compound": "C[C@H]1CCCC(C)(C)[C@@H]1CCC(=O)N1CCN(C(N)=O)CC1", "note": "[Compound 80, 4-(3-((1R,6S)-2,2,6-trimethylcyclohexyl)propanoyl)piperazine-1-carboxamide]", "regeneration of 500 nm absorbing pigment upon treatment with retinal": "increase"},
      {"compound": "CC1=C(/C=C/C(=O)N2CCN(C(N)=S)CC2)C(C)(C)CCC1", "note": "[Compound 105, (E)-4-(3-(2,6,6-Trimethylcyclohex-1-en-1-yl)acryloyl)piperazine-1-carbothioamide]", "regeneration of 500 nm absorbing pigment upon treatment with retinal": "increase"},
      {"compound": "C#CC1CN(C(=O)/C=C/C2=C(C)CCCC2(C)C)CCN1C(N)=O", "note": "(centres unmarked) [Compound 106, (E)-2-Ethynyl-4-(3-(2,6,6-trimethylcyclohex-1-en-1-yl)acryloyl)piperazine-1-carboxamide]", "regeneration of 500 nm absorbing pigment upon treatment with retinal": "increase"}
    ]}
  ]
}
